# Source: patent US20240207292A1, “BORONIC ACID COMPOUNDS, COMPOSITIONS AND METHODS” (Trustees of Tufts College, priority 2021, published 2024)
# Square brackets hold non-standard residues; d marks the D form. Peptide text beside a SMILES is read from it. * marks the point of attachment. DOTA(Ga) = O=C1CN2CCN3CCN(CC(=O)*)CCN(CC2)CC(=O)[O][Ga]([O]1)[O]C(=O)C3; DOTAGA = O=C(O)CN1CCN(CC(=O)O)CCN(C(CCC(=O)*)C(=O)O)CCN(CC(=O)O)CC1; DOTA = O=C(O)CN1CCN(CC(=O)O)CCN(CC(=O)*)CCN(CC(=O)O)CC1; boroPro = OB(O)[C@@H]1CCCN1*
# Molecular target: recombinant human fibroblast activation protein (FAP) (Homo sapiens (Human), UniProt Q12884)
# Sequence (Q12884 whole entry): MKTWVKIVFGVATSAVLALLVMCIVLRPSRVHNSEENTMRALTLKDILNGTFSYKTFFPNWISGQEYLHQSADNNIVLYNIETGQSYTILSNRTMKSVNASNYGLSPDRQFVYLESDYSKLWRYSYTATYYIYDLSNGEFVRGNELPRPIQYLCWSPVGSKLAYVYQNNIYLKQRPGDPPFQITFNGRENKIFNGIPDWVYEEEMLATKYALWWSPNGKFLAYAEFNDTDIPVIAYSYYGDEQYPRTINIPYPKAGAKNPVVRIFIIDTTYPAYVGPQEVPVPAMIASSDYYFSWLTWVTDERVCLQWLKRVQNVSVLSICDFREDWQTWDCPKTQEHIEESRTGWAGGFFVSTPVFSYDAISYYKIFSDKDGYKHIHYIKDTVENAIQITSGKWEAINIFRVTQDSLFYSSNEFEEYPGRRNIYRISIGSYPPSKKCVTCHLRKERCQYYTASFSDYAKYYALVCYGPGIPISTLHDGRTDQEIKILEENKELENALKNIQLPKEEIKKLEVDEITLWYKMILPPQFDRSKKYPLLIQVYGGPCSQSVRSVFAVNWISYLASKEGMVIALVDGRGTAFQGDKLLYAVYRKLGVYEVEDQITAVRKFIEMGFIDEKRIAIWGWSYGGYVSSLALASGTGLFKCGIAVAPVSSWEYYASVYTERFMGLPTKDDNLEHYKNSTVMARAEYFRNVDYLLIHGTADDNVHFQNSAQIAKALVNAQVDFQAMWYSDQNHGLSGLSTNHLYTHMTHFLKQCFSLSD
# Assay: In vitro assay fibroblast activation protein IC50 (Example 21)
# Type: biochemical
# Settings: Z-Gly-Pro-AMC; 1.2 nM enzyme
# Protocol: The purpose of this assay is to determine the IC50 of various inhibitors against recombinant human dipeptidyl peptidase IV (DPPIV), fibroblast activation protein (FAP) or prolyl oligopeptidase (PREP).
# The assays are conducted in the following steps: • 1 Dissolve the compound in DMSO to a final concentration of 100 mM. From this, prepare a 1 mM stock at pH 7.5 in 50 mM Tris, 140 mM NaCl Buffer (FAP)/pH 7.5 in 25 mM Tris, 250 mM NaCl Buffer/[…]. • 2. Serial dilute (1:10) the 1 mM compound stocks prepared previously into the appropriate assay buffer (FAP: 50 mM Tris, 140 mM NaCl, pH 7.5/PREP: 25 mM Tris, 0.25 M NaCl, pH 7.5/DPPIV: 25 mM Tris, pH 8.0) to one row of a 96-well plate. • 3. […] Dilute the enzymes into their appropriate assay buffers. The final enzyme concentrations should be 0.1, 1.2, and 0.6 nM for DPPIV, FAP and PREP respectively. Add 180 μL to each well needed in columns 2-10. Column 1(A,B,C) should be prepared with 200 μl of appropriate assay buffer as control. Column 1(D,E,F,G,H) should be prepared with 20 μl of appropriate assay buffer and 180 ul enzyme as no inhibitor control. • 5. Add 20 μL of the compound of interest from the dilution plate prepared in step 2 to columns 2-10 of the assay plate where appropriate. Each sample should be tested in triplicate. Allow this to incubate for 10 minutes at room temperature, shaking the plate for the first two minutes. • 6. Add 10 μL of 20× substrate prepared in step 3 to each well and allow this to incubate for 15 minutes at room temperature, shaking the plate for the first two minutes. • 7. Read the fluorescence at λex: 380, λem: 460. (DPcore=[dAla|dSer|Gly]-[boroPro|Pro-nitrile], XXaa=alpha-amino acid)
row,IC50,Structure (SMILES)
1,121 nM,"CC(C)[C@H](NC(=O)CCNC(=O)CN1CCN(CC(=O)O)CCN(CC(=O)O)CCN(CC(=O)O)CC1)C(=O)N[C@H](C)C(=O)N1CCC[C@H]1B(O)O [compound 6615, DOTA-betaala-Val-D-ala-boroPro]"
2,26.8 nM,CC(C)[C@H](NC(=O)CNC(=O)CNC(=O)CNC(=O)CN1CCN(CC(=O)O)CCN(CC(=O)O)CCN(CC(=O)O)CC1)C(=O)N[C@H](C)C(=O)N1CCC[C@H]1B(O)O [compound 6834] ({DOTA}-GGGV[dA]-boroPro)
3,21 nM,CC(C)[C@H](NC(=O)[C@@H](C)NC(=O)CNC(=O)CNC(=O)CNC(=O)CN1CCN(CC(=O)O)CCN(CC(=O)O)CCN(CC(=O)O)CC1)C(=O)N[C@H](C)C(=O)N1CCC[C@H]1B(O)O [compound 6839] ({DOTA}-GGG[dA]V[dA]-boroPro)
4,14.8 nM,CC(C)[C@H](NC(=O)CNC(=O)CNC(=O)CNC(=O)CNC(=O)CNC(=O)CN1CCN(CC(=O)O)CCN(CC(=O)O)CCN(CC(=O)O)CC1)C(=O)N[C@H](C)C(=O)N1CCC[C@H]1B(O)O [compound 6848] ({DOTA}-GGGGGV[dA]-boroPro)
5,21 nM,CC(C)[C@H](NC(=O)CNC(=O)CNC(=O)CNC(=O)CNC(=O)CNC(=O)CNC(=O)CN1CCN(CC(=O)O)CCN(CC(=O)O)CCN(CC(=O)O)CC1)C(=O)N[C@H](C)C(=O)N1CCC[C@H]1B(O)O [compound 6850] ({DOTA}-GGGGGGV[dA]-boroPro)
6,21 nM,CC(C)[C@H](NC(=O)CNC(=O)CNC(=O)CNC(=O)CNC(=O)CCC(C(=O)O)N1CCN(CC(=O)O)CCN(CC(=O)O)CCN(CC(=O)O)CC1)C(=O)N[C@H](C)C(=O)N1CCC[C@H]1B(O)O (some centres unmarked) [compound 6868] ({DOTAGA}-GGGGV[dA]-boroPro)
7,1.1 nM,CC(C)[C@H](NC(=O)CNC(=O)CNC(=O)CNC(=O)CNC(=O)CNC(=O)CCC(C(=O)O)N1CCN(CC(=O)O)CCN(CC(=O)O)CCN(CC(=O)O)CC1)C(=O)N[C@H](C)C(=O)N1CCC[C@H]1B(O)O (some centres unmarked) [compound 6869] ({DOTAGA}-GGGGGV[dA]-boroPro)
8,9.2 nM,CC(C)[C@H](NC(=O)CNC(=O)CNC(=O)CNC(=O)CNC(=O)CNC(=O)CNC(=O)CCC(C(=O)O)N1CCN(CC(=O)O)CCN(CC(=O)O)CCN(CC(=O)O)CC1)C(=O)N[C@H](C)C(=O)N1CCC[C@H]1B(O)O (some centres unmarked) [compound 6870] ({DOTAGA}-GGGGGGV[dA]-boroPro)
9,5.2 nM,"CC(C)[C@H](NC(=O)CCCCNC(=O)CN1CCN(CC(=O)O)CCN(CC(=O)O)CCN(CC(=O)O)CC1)C(=O)N[C@H](C)C(=O)N1CCC[C@H]1B(O)O [compound 6940, DOTA-PEN-Val-D-alaboroPro]"

row,Structure (SMILES),IC50
1,CC(C)[C@H](NC(=O)CNC(=O)CNC(=O)CNC(=O)CNC(=O)CN1CCN2CCN3CCN(CC1)CC(=O)[O][Ga]([O]C(=O)C2)[O]C(=O)C3)C(=O)N[C@H](C)C(=O)N1CCC[C@H]1B(O)O [6839GA] ({DOTA(Ga)}-GGGGV[dA]-boroPro),258 nM
2,CC(C)[C@H](NC(=O)CNC(=O)CNC(=O)CNC(=O)CNC(=O)CNC(=O)CN1CCN2CCN3CCN(CC1)CC(=O)[O][Ga]([O]C(=O)C2)[O]C(=O)C3)C(=O)N[C@H](C)C(=O)N1CCC[C@H]1B(O)O [6848GA] ({DOTA(Ga)}-GGGGGV[dA]-boroPro),180 nM
3,"CC(C)[C@H](NC(=O)CCCCNC(=O)CN1CCN2CCN3CCN(CC1)CC(=O)[O][Ga]([O]C(=O)C2)[O]C(=O)C3)C(=O)N[C@H](C)C(=O)N1CCC[C@H]1B(O)O [6940GA, DOTA(Ga)-PEN-Val-Dala-boroPro]",110 nM
4,"CC(C)[C@H](NC(=O)CCCCNC(=O)CN1CCN2CCN3CCN(CC1)CC(=O)[O][Lu]([O]C(=O)C2)[O]C(=O)C3)C(=O)N[C@H](C)C(=O)N1CCC[C@H]1B(O)O [6940LU, DOTA(Lu)-PEN-Val-Dala-boroPro]",23.6 nM
5,"CC(C)[C@H](NC(=O)CCCCCCCNC(=O)CN1CCN2CCN3CCN(CC1)CC(=O)[O][Ga]([O]C(=O)C2)[O]C(=O)C3)C(=O)N[C@H](C)C(=O)N1CCC[C@H]1B(O)O [6947GA, DOTA(Ga)-OCT-Val-Dala-boroPro]",219 nM
6,"CC(C)[C@H](NC(=O)CCCCCNC(=O)CN1CCN2CCN3CCN(CC1)CC(=O)[O][Ga]([O]C(=O)C2)[O]C(=O)C3)C(=O)N[C@H](C)C(=O)N1CCC[C@H]1B(O)O [6948GA, DOTA(Ga)-HEX-Val-Dala-boroPro]",144 nM
7,CC(C)[C@H](NC(=O)CCCCCCNC(=O)CN1CCN2CCN3CCN(CC1)CC(=O)[O][Ga]([O]C(=O)C2)[O]C(=O)C3)C(=O)N[C@H](C)C(=O)N1CCC[C@H]1B(O)O [6949GA],181 nM
8,CC(C)[C@H](NC(=O)CNC(=O)CNC(=O)CNC(=O)CCC(C(=O)O)N1CCN(CC(=O)O)CCN(CC(=O)O)CCN(CC(=O)O)CC1)C(=O)N[C@H](C)C(=O)N1CCC[C@H]1B(O)O (some centres unmarked) [compound 6808] ({DOTAGA}-GGGV[dA]-boroPro),11.5 nM
